We go through 13 compounds from US20250129099A1, “INHIBITOR OF APOPTOSIS (IAP) PROTEIN ANTAGONISTS” (Sanford Burnham Prebys Medical Discovery Institute, priority 2021, published 2025).

pIC50: −log10 of the molar value. Structures can show the parent of a compound that is named as a salt. Where two headings read alike, the source gives them in different places.

One experiment deals with SKOV-3 cancer cell lines. Nature of the experiment: Cell viability of SKOV-3 cancer cell lines after treatment with test compound. The experiment is classed as cell-based. On the procedure:
[…] Cell viability is evaluated following treatment with a compound as disclosed in Table B. Viability of cancer cells following treatment is indicated according to the following legend:

A further experiment relates to OVCAR-4. Put plainly: Cell viability of OVCAR-4 cells after treatment with test compound. The experiment is classed as cell-based.
Where [1] appears, read: Homo sapiens, SK-OV-3, SKOV-3 cancer cells.

By pIC50 is commonly meant −log10 of the IC50, conventionally taken in molar units. As for `CN[C@@H](C)C(=O)N[C@H]1CCO[C@H]2CC3(CCCC3)[C@@H](C(=O)N[C@@H]3CCOc4ccccc43)N2C1=O` [Compound 9, (4′S,7′S,9a'S)-4′-((S)-2-(chloro(methyl)-16-azaneyl)propanamido)-N-(chroman-4-yl)-5′-oxohexahydro-7′H-spiro[cyclopentane-1,8′-pyrrolo[2,1-b][1,3]oxazepine]-7′-carboxamide], the pIC50 was 8.00 to 9.00 in the experiment with SKOV-3 cancer cell lines (setting [1]) and 6.00 to 7.00 with OVCAR-4 (Homo sapiens).

As to `CN[C@@H](C)C(=O)N[C@H]1CCS[C@H]2CC3(CC=CC3)[C@@H](C(=O)N[C@@H]3CCCc4ccccc43)N2C1=O` [Compound 11, (4′S,7′S,9a'S)-4′-((S)-2-(chloro(methyl)-15-azaneyl)propanamido)-5′-oxo-N-(1,2,3,4-tetrahydronaphthalen-1-yl)-2′,3′,4′,5′,9′,9a′-hexahydro-7′H-spiro[cyclopentane-1,8′-pyrrolo[2,1-b][1,3]thiazepin]-3-ene-7′-carboxamide], the pIC50 in the experiment on SKOV-3 cancer cell lines (setting [1]) is 8.00 to 9.00; with OVCAR-4 (Homo sapiens), 7.00 to 8.00.

Consider `CN[C@@H](C)C(=O)N[C@H]1CCS[C@H]2CC(C)(C)[C@@H](C(=O)N[C@@H]3CCSc4ccccc43)N2C1=O` [Compound 2, (4S,7S)-8,8-dimethyl-4-((S)-2-(methylamino)propanamido)-5-oxo-N—((R)-thiochroman-4-yl)octahydropyrrolo[2,1-b][1,3]thiazepine-7-carboxamide hydrochloride], for which the pIC50 in the experiment on SKOV-3 cancer cell lines (setting [1]) was 8.00 to 9.00; with OVCAR-4 (Homo sapiens), 6.00 to 7.00.

Regarding `CC[C@H](NC)C(=O)N[C@H]1CCSC2CC(C)(C)[C@@H](C(=O)N[C@@H]3CCOc4ccccc43)N2C1=O` (stereo partly drawn) [Compound 8, (4S,7S)—N—((R)-chroman-4-yl)-8,8-dimethyl-4-((S)-2-(methylamino)butanamido)-5-oxooctahydropyrrolo[2,1-b][1,3]thiazepine-7-carboxamide hydrochloride], the figures for the negative-log IC50 (pIC50) in the experiment with SKOV-3 cancer cell lines (setting [1]) and in the experiment on OVCAR-4 (Homo sapiens) were 8.00 to 9.00 and 7.00 to 8.00, respectively.

Take `CN[C@@H](C)C(=O)N[C@H]1CCS[C@H]2CC3(CCCC3)[C@@H](C(=O)N[C@@H]3CCSc4ccccc43)N2C1=O` [Compound 6, (4′S,7′S,9a'S)-4′-((S)-2-(chloro(methyl)-15-azaneyl)propanamido)-5′-oxo-N—((R)-thiochroman-4-yl)hexahydro-7′H-spiro[cyclopentane-1,8′-pyrrolo[2,1-b][1,3]thiazepine]-7′-carboxamide]: the pIC50 in the experiment on SKOV-3 cancer cell lines (setting [1]) was 8.00 to 9.00; with OVCAR-4 (Homo sapiens) it was 6.00 to 7.00.

As to `CN[C@@H](C)C(=O)N[C@H]1CCS[C@H]2CC3(CC=CC3)[C@@H](C(=O)N[C@@H]3CCSc4ccccc43)N2C1=O` [Compound 4, (4′S,7′S,9a'S)-4′-((S)-2-(chloro(methyl)-15-azaneyl)propanamido)-5′-oxo-N—((R)-thiochroman-4-yl)-2′,3′,4′,5′,9′,9a′-hexahydro-7′H-spiro[cyclopentane-1,8′-pyrrolo[2,1-b][1,3]thiazepin]-3-ene-7′-carboxamide], the pIC50 in the experiment with SKOV-3 cancer cell lines (setting [1]) was 8.00 to 9.00; in the experiment with OVCAR-4 (Homo sapiens) it was 6.00 to 7.00.

Turning to `CN[C@@H](C)C(=O)N[C@H]1CCS[C@H]2CC3(CCCC3)[C@@H](C(=O)N[C@@H]3CCOc4ccccc43)N2C1=O` [Compound 5, (4′S,7′S,9a'S)-4′-((S)-2-(chloro(methyl)-15-azaneyl)propanamido)-N-(chroman-4-yl)-5′-oxohexahydro-7′H-spiro[cyclopentane-1,8′-pyrrolo[2,1-b][1,3]thiazepine]-7′-carboxamide], the figures for the pIC50 in the experiment with SKOV-3 cancer cell lines (setting [1]) and in the experiment on OVCAR-4 (Homo sapiens) were 8.00 to 9.00 and 7.00 to 8.00, respectively.

Turning to `CN[C@@H](C)C(=O)N[C@H]1CCS[C@H]2CC(C)(C)[C@@H](C(=O)N[C@@H]3CCOc4ccccc43)N2C1=O` [Compound 1, (4S,7S)—N—((R)-chroman-4-yl)-8,8-dimethyl-4-((S)-2-(methylamino)propanamido)-5-oxooctahydropyrrolo[2,1-b][1,3]thiazepine-7-carboxamide hydrochloride], the pIC50 is 8.00 to 9.00 in the experiment with SKOV-3 cancer cell lines (setting [1]) and 7.00 to 8.00 in the experiment with OVCAR-4 (Homo sapiens).

Take `CN[C@@H](C)NC(=O)N[C@H]1CCSC2CC(C)(C)[C@@H](C(=O)N[C@@H]3CCOc4ccccc43)N2C1=O` (stereo partly drawn) [Compound 7, (4S,7S)—N—((R)-chroman-4-yl)-8,8-dimethyl-4-(3-((R)-1-(methylamino)ethyl)ureido)-5-oxooctahydropyrrolo[2,1-b][1,3]thiazepine-7-carboxamide hydrochloride]: the negative logarithm of the IC50 (pIC50) in the experiment with SKOV-3 cancer cell lines (setting [1]) and with OVCAR-4 (Homo sapiens) was below 6.00 throughout.

In the case of `CN[C@@H](C)C(=O)N[C@H]1CCO[C@H]2CC3(CC=CC3)[C@@H](C(=O)N[C@H]3CCOc4ccccc43)N2C1=O` [Compound 12, (4′S,7′S,9a'S)-4′-((S)-2-(chloro(methyl)-15-azaneyl)propanamido)-N—((S)-chroman-4-yl)-5′-oxo-2′,3′,4′,5′,9′,9a′-hexahydro-7′H-spiro[cyclopentane-1,8′-pyrrolo[2,1-b][1,3]oxazepin]-3-ene-7′-carboxamide], the pIC50 is 6.00 to 7.00 with SKOV-3 cancer cell lines (SKOV-3 cancer cells) and below 6.00 in the experiment with OVCAR-4.

With `CC[C@H](NC)C(=O)N[C@H]1CCO[C@H]2CC3(CC=CC3)[C@@H](C(=O)N[C@@H]3CCOc4ccccc43)N2C1=O` [Compound 13, (4′S,7′S,9a'S)-4′-((S)-2-(chloro(methyl)-16-azaneyl)butanamido)-N—((S)-chroman-4-yl)-5′-oxo-2′,3′,4′,5′,9′,9a′-hexahydro-7′H-spiro[cyclopentane-1,8′-pyrrolo[2,1-b][1,3]oxazepin]-3-ene-7′-carboxamide], the pIC50 in the experiment on SKOV-3 cancer cell lines (setting [1]) was 8.00 to 9.00; in the experiment on OVCAR-4 (Homo sapiens) it was 6.00 to 7.00.

For `CC[C@H](NC)C(=O)N[C@H]1CCO[C@H]2CC3(CCCC3)[C@@H](C(=O)N[C@@H]3CCOc4ccccc43)N2C1=O` [Compound 10, (4′S,7′S,9a'S)-4′-((S)-2-(chloro(methyl)-16-azaneyl)butanamido)-N-(chroman-4-yl)-5′-oxohexahydro-7′H-spiro[cyclopentane-1,8′-pyrrolo[2,1-b][1,3]oxazepine]-7′-carboxamide], the pIC50 with SKOV-3 cancer cell lines (setting [1]) is 8.00 to 9.00; in the experiment on OVCAR-4 (Homo sapiens) it was 6.00 to 7.00.

For the compound `CN[C@@H](C)C(=O)N[C@H]1CCS[C@H]2CC3(CC=CC3)[C@@H](C(=O)N[C@@H]3CCOc4ccccc43)N2C1=O` [Compound 3, (4′S,7′S,9a'S)-4′-((S)-2-(chloro(methyl)-15-azaneyl)propanamido)-N—((R)-chroman-4-yl)-5′-oxo-2′,3′,4′,5′,9′,9a′-hexahydro-7′H-spiro[cyclopentane-1,8′-pyrrolo[2,1-b][1,3]thiazepin]-3-ene-7′-carboxamide], the pIC50 is 8.00 to 9.00 in the experiment on SKOV-3 cancer cell lines (setting [1]) and 7.00 to 8.00 with OVCAR-4 (Homo sapiens).
